The record followed here is patent publication US11547715B2, “Use of chlorogenic acid in preparation of drug for treating chordoma” (SICHUAN JIUZHANG BIOLOGICAL SCIENCE AND TECHNOLOGY CO., LTD, priority 2017, dated 2023).

Test [1] concerns MDR1 expression in human chordoma CM-319 cells. To be noted: RT-PCR, FIG. 1. The text has this:
MDR1 primer (Shanghai Bioengineering Co., Ltd.); RNA extraction kit (Jiangsu biyuntian); reverse transcription synthesis kit (Jiangsu biyuntian); chlorogenic acid API (purity 99.6%, Sichuan Jiuzhang Biotechnology Co., Ltd.).
In this example, RT-PCR was used to detect the effect of different experimental groups on the expression of MDR1 in human chordoma CM-319 cells. CM-319 cells cultured in 6-well plate was collected, and RNA extraction kit was used to extract total RNA in cells, then reverse transcription synthesis kit was used to transcribe the first strand of cDNA. After that, PCR amplification reaction was used to detect the expression level of target genes in different experimental groups.

For test [2], the system named is human chordoma CM-319 cells. As to the kind of experiment: CCK-8 proliferation inhibition of human chordoma CM-319 cells. Type of test: cell-based. Here is the method: Drug: chlorogenic acid raw material (99.6% purity, Sichuan Jiuzhang Biotechnology Co., Ltd.) Cell line: human chordoma cell line CM-319 cells (West China Hospital, Sichuan University)
Human chordoma CM-319 cells growing in logarithmic phase was collected, and the cell concentration was adjusted to 6×10^5 cells/ml with 1640 medium. 100 μL suspension of above cells was taken out and inoculated into 96 well plate, and each experimental group has three replicate wells. To each well, was added 100 μL corresponding drugs, so that the final concentration of chlorogenic acid in the experimental group is 10 μmol/L, 20 μmol/L, and 40 μmol/L, respectively, and then the plate was further cultured for 24 hours. In the negative control group, no drug was added, and only the same volume of 100 μL culture medium was added. After 24 hours, 10 μL CCK-8 solution was added to each well, and the culture plate was incubated in the incubator for another one hour. The absorbance of each well was measured at 450 nm by ELISA. The inhibition of chlorogenic acid on human chordoma CM-319 cells was calculated at various concentrations by using the growth inhibition rate=(absorbance of the negative control group at 450 nm—absorbance of the experimental group at 450 nm)/absorbance of the negative control group at 450 nm×100%.

Where [3] appears, read: different concentrations (10, 20, 40 μmol/L).

SMILES strings stand for the structures.

`O=C(/C=C/c1ccc(O)c(O)c1)O[C@@H]1C[C@](O)(C(=O)O)C[C@@H](O)[C@H]1O` [chlorogenic acid]: in test [1] (setting [3]), the “expression level of MDR1 in CM-319 cells (in words)” value is recorded as “reduce the expression level of MDR1 in CM-319 cells to various degrees”. Besides, in test [1] (high concentration 40 μmol/L, compared with other groups), the “expression level of drug-resistant genes (MDR1) in cells (in words)” value was “significantly reduce the expression level of drug-resistant genes”. In addition, the inhibition at 10 µM in test [2] (Homo sapiens, Group 1: chlorogenic acid 10 μmol/L, 24 hours, CCK-8, read-out: Inhibitory rate of cells (%)) was determined as 36.8 ± 5.12%. Moreover, the inhibition at 20 µM in test [2] (Homo sapiens, Group 2: chlorogenic acid 20 μmol/L, 24 hours, CCK-8, read-out: Inhibitory rate of cells (%)) was determined as 48.4 ± 6.11%. Also, the inhibition at 40 µM in test [2] (Homo sapiens, Group 3: chlorogenic acid 40 μmol/L, 24 hours, CCK-8, read-out: Inhibitory rate of cells (%)) turned out to be 55.5 ± 3.78%. In addition, the “inhibition of proliferation of human chordoma cells (in words)” value in test [2] (setting [3]) was “strongly inhibit human chordoma cells”.
